Columns and labels:
Assay in all cases: KINOMEscan competition binding
Settings in all cases: compound 10.0 µM
[1] = molecular target: MAPK12 (human) (UniProt P53778)
[2] = molecular target: WEE1 (human) (UniProt P30291)
[3] = molecular target: MERTK (human) (UniProt Q12866)
[4] = molecular target: CHUK (human) (UniProt O15111)
[5] = molecular target: ACVR1 (human) (UniProt Q04771)
[6] = molecular target: STK35 (human) (UniProt Q8TDR2)
[7] = molecular target: MAP3K3 (human) (UniProt Q99759)
[8] = molecular target: CAMK2A (human) (UniProt Q9UQM7)
[9] = molecular target: ERBB3 (human) (UniProt P21860)
[10] = molecular target: JAK3 JH1 catalytic (human) (UniProt P52333)
[11] = molecular target: NEK6 (human) (UniProt Q9HC98)
[12] = molecular target: SBK1 (human) (UniProt Q52WX2)
[13] = molecular target: PRKCH (human) (UniProt P24723)
[14] = molecular target: SYK (human) (UniProt P43405)
[15] = test system: FGFR3 (human), P22607 [G697C]
[16] = molecular target: CDKL5 (human) (UniProt O76039)
[17] = molecular target: CASK (human) (UniProt O14936)
Chain of CASK (human) (O14936 whole entry, looked up): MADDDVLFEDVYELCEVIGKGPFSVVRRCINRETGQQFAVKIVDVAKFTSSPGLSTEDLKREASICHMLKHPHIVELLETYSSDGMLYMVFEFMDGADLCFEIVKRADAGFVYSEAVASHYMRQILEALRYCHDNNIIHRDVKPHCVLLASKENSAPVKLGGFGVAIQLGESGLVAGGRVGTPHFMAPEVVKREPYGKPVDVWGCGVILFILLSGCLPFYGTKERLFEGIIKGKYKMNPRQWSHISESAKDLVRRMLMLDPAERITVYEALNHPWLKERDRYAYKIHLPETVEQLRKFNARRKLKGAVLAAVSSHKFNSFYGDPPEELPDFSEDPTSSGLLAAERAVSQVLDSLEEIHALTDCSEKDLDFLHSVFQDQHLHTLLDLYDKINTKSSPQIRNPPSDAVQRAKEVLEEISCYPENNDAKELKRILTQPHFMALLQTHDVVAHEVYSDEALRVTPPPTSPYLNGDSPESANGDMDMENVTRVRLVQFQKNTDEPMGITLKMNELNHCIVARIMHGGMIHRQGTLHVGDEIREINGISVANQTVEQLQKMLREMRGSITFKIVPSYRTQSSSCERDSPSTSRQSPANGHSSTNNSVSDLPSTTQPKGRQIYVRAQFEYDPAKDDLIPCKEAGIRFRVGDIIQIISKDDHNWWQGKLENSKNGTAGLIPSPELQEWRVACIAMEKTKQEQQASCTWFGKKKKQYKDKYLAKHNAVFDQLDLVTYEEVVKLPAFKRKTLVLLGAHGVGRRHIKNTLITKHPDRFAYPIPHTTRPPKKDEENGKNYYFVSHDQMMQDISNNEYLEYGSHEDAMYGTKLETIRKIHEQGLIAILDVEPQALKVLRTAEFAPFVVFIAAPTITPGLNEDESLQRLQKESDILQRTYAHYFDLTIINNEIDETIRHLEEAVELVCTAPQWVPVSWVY

[18] = molecular target: MYLK (human) (UniProt Q15746)
[19] = molecular target: PDGFRB (human) (UniProt P09619)
[20] = molecular target: MAPK6 (human) (UniProt Q16659)
[21] = molecular target: NLK (human) (UniProt Q9UBE8)
[22] = molecular target: CDKL3 (human) (UniProt Q8IVW4)
Chain of CDKL3 (human) (Q8IVW4 whole entry, looked up): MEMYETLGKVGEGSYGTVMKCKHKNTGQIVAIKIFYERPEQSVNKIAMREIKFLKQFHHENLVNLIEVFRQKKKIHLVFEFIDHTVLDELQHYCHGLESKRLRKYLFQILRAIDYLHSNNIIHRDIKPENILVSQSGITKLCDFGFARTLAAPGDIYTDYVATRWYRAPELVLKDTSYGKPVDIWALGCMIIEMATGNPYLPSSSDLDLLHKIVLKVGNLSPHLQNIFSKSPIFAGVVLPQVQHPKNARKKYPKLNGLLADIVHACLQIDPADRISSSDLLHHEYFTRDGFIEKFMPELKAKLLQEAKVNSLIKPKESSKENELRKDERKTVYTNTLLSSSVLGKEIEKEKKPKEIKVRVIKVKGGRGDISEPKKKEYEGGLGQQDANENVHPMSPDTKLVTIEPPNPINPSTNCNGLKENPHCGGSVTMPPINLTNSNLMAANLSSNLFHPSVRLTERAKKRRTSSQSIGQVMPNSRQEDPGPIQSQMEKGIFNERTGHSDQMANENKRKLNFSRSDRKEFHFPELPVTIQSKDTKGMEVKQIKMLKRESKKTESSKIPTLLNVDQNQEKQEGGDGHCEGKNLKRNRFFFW

[23] = molecular target: CSNK1D (human) (UniProt P48730)
[24] = molecular target: NIM1 (human) (UniProt Q8IY84)
[25] = molecular target: ACVR2B (human) (UniProt Q13705)
[26] = molecular target: TEK (human) (UniProt Q02763)
[27] = test system: KIT (human), P10721 [D816H]
[28] = test system: PIK3CA (human), P42336 [M1043I]
[29] = molecular target: MARK3 (human) (UniProt P27448)
Chain of MARK3 (human) (P27448 whole entry, looked up): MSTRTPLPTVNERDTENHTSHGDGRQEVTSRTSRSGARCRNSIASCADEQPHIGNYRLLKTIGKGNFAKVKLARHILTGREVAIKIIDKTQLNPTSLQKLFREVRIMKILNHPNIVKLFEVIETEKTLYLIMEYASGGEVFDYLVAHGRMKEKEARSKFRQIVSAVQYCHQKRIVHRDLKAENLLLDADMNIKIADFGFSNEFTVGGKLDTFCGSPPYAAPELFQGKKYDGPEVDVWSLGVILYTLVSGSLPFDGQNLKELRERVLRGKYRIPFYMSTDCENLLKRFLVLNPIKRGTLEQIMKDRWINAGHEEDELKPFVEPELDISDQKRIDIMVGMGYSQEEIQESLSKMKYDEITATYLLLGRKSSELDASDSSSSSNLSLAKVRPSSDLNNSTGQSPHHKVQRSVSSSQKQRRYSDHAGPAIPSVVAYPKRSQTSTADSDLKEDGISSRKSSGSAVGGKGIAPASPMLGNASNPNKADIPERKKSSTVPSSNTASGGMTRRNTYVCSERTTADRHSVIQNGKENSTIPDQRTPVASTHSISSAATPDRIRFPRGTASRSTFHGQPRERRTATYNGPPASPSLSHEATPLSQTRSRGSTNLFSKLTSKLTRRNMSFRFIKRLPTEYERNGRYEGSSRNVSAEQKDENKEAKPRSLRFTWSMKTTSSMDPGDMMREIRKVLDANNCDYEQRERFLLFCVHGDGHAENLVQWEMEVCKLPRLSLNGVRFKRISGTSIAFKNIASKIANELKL

[30] = test system: CPK1 (P.falciparum)
[31] = molecular target: MAPK1 (human) (UniProt P28482)
[32] = molecular target: FGFR2 (human) (UniProt P21802)
Chain of FGFR2 (human) (P21802 whole entry, looked up): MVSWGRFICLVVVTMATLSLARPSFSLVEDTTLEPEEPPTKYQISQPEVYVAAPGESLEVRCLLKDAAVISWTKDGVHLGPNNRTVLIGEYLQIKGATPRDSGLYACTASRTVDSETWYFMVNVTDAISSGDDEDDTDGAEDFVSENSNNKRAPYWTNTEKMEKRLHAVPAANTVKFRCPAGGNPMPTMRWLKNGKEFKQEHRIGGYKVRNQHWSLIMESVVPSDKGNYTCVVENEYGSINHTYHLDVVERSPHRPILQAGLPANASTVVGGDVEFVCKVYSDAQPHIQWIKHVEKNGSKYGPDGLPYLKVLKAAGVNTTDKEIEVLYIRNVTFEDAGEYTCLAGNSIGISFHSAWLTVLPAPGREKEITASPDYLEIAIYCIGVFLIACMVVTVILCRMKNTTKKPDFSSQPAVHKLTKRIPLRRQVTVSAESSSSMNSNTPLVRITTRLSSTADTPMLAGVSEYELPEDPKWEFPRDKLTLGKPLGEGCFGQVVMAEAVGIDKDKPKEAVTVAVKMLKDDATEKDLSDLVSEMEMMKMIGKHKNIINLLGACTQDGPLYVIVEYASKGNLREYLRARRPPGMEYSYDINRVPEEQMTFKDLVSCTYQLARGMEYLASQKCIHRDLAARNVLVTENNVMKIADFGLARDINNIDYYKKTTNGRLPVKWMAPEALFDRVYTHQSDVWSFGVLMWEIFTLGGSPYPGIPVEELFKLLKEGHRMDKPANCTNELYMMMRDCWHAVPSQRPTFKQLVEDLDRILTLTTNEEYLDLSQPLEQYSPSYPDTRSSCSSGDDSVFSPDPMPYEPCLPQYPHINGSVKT

[33] = molecular target: RPS6KA4 KD1 (human) (UniProt O75676)
[34] = molecular target: PRKG1 (human) (UniProt Q13976)
[35] = molecular target: PDPK1 (human) (UniProt O15530)
[36] = molecular target: PHKG2 (human) (UniProt P15735)
[37] = molecular target: MAP3K15 (human) (UniProt Q6ZN16)
[38] = molecular target: ITK (human) (UniProt Q08881)
[39] = molecular target: MAP2K2 (human) (UniProt P36507)
[40] = molecular target: ROCK2 (human) (UniProt O75116)

Chain of CHUK (human) (O15111 whole entry, looked up): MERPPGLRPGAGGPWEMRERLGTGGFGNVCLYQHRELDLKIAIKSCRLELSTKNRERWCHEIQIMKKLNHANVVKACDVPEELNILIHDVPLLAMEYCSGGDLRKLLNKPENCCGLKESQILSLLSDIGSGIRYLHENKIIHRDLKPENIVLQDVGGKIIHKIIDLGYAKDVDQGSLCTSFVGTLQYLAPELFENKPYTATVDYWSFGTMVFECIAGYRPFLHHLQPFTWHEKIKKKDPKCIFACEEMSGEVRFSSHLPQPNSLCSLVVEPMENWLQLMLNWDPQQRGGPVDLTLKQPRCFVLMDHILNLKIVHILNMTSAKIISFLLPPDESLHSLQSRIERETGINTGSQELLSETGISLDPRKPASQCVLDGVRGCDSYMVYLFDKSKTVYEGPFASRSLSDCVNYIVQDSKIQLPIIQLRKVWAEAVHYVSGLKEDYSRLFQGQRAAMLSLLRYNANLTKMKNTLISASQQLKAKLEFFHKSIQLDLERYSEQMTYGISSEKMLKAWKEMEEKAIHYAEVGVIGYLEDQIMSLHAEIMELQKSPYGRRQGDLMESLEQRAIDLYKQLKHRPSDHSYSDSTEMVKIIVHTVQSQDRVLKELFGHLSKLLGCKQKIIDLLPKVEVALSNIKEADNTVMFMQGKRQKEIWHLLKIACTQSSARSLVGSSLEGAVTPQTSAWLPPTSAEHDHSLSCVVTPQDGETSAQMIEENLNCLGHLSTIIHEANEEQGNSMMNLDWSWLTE
Chain of MAPK12 (human) (P53778 whole entry, looked up): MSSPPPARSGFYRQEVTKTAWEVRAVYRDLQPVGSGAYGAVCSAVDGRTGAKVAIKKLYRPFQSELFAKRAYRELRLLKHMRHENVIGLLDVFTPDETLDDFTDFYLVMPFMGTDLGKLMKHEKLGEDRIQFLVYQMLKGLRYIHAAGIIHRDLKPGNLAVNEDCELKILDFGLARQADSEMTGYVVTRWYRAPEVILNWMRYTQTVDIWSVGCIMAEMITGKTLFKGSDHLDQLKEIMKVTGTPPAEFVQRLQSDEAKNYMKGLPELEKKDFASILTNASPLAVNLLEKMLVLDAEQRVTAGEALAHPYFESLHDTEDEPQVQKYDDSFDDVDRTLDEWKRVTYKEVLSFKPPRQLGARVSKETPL
Chain of MAP3K3 (human) (Q99759 whole entry, looked up): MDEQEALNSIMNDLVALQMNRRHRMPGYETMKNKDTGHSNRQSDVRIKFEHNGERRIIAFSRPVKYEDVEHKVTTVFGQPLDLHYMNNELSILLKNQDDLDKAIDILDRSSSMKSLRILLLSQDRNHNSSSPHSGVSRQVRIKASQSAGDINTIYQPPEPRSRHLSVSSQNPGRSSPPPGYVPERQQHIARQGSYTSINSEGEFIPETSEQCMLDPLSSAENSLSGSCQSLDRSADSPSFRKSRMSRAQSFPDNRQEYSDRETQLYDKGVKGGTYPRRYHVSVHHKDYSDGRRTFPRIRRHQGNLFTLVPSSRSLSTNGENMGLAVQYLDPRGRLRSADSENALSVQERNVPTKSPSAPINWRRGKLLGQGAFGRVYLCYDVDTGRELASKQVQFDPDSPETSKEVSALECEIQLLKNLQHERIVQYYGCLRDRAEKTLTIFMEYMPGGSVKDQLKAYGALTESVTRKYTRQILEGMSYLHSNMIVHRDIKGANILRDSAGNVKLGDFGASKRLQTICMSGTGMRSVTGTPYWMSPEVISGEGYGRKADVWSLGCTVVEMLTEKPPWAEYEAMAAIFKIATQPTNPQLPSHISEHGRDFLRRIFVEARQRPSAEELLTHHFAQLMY

With COc1cc2c(Nc3ccc(NC(=O)c4ccccc4)cc3)ncnc2cc1OCCCN1CCOCC1 the kinase still bound, per cent of control [1] was 49%, the kinase still bound, per cent of control [2] was 100% and the kinase still bound, per cent of control [3] was 2.4%. The kinase still bound, per cent of control [4] was 100%, the kinase still bound, per cent of control [5] was 100% and the kinase still bound, per cent of control [6] was 64%. The kinase still bound, per cent of control [7] was 18%, the kinase still bound, per cent of control [8] was 85% and the kinase still bound, per cent of control [9] was 1%. For the same compound, the kinase still bound, per cent of control [10] was 62%, the kinase still bound, per cent of control [11] was 100% and the kinase still bound, per cent of control [12] was 92%. The kinase still bound, per cent of control [13] was 100%, the kinase still bound, per cent of control [14] was 69% and the kinase still bound, per cent of control [15] was 100%. The kinase still bound, per cent of control [16] was 46%, the kinase still bound, per cent of control [17] was 100% and the kinase still bound, per cent of control [18] was 92%. The kinase still bound, per cent of control [19] was 1.1%, the kinase still bound, per cent of control [20] was 100% and the kinase still bound, per cent of control [21] was 100%. The kinase still bound, per cent of control [22] was 100%, the kinase still bound, per cent of control [23] was 71% and the kinase still bound, per cent of control [24] was 100%. The kinase still bound, per cent of control [25] was 100%, the kinase still bound, per cent of control [26] was 33% and the kinase still bound, per cent of control [27] was 69%. The kinase still bound, per cent of control [28] was 99%, the kinase still bound, per cent of control [29] was 96% and the kinase still bound, per cent of control [30] was 47%. It also gave a kinase still bound, per cent of control [31] of 72%, a kinase still bound, per cent of control [32] of 89% and a kinase still bound, per cent of control [33] of 100%. The kinase still bound, per cent of control [34] was 100%, the kinase still bound, per cent of control [35] was 100% and the kinase still bound, per cent of control [36] was 76%. The kinase still bound, per cent of control [37] was 100%, the kinase still bound, per cent of control [38] was 100% and the kinase still bound, per cent of control [39] was 0.1%. It also gave a kinase still bound, per cent of control [40] of 34%.

— the kinase profiling compilation of Christmann-Franck et al. (2016)
